Earlier results as cited in patent publication US8603529B2, “Polynucleotide aptamer-based cross-linked materials and uses thereof” (Smartcells, Inc., priority 2009, dated 2013).

Biological target: avidin (Gallus gallus, UniProt P02701)
Sequence (P02701 25-152, species assumed): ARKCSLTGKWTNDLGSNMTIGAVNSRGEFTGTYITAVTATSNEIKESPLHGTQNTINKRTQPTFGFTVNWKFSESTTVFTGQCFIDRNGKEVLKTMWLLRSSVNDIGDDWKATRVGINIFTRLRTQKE

For `O=C(O)CCCC[C@@H]1SC[C@@H]2NC(=O)N[C@@H]21` [biotin], the “binding constant between biotin and avidin” value is listed as 10^15 M^−1.
